Numbers after ± are expanded uncertainties.
Columns and labels:
[1] = xn = mol fraction of the nth substance listed; details: Ring tensiometer
[2] = Ring tensiometer

C[S+](C)[O-] [dimethyl sulfoxide] + CCCO
surface tension liquid-gas ([1]; 288.15 K, x2 = 0.0454): 40.3 ± 1.1 mN/m
surface tension liquid-gas ([1]; 288.15 K, x2 = 0.1248): 36.24 ± 1.1 mN/m
surface tension liquid-gas ([1]; 288.15 K, x2 = 0.2498): 33.09 ± 1.1 mN/m
surface tension liquid-gas ([1]; 288.15 K, x2 = 0.3821): 30.1 ± 1.1 mN/m
surface tension liquid-gas ([1]; 288.15 K, x2 = 0.4997): 28.34 ± 1.1 mN/m
surface tension liquid-gas ([1]; 288.15 K, x2 = 0.5959): 27.14 ± 1.1 mN/m
surface tension liquid-gas ([1]; 288.15 K, x2 = 0.661): 26.33 ± 1.1 mN/m
surface tension liquid-gas ([1]; 288.15 K, x2 = 0.7081): 25.71 ± 1.1 mN/m
surface tension liquid-gas ([1]; 288.15 K, x2 = 0.7437): 25.25 ± 1.1 mN/m
surface tension liquid-gas ([1]; 288.15 K, x2 = 0.8523): 24.28 ± 1.1 mN/m
surface tension liquid-gas ([1]; 288.15 K, x2 = 0.9519): 23.55 ± 1.1 mN/m
surface tension liquid-gas ([1]; 298.15 K, x2 = 0.0454): 39.39 ± 1.1 mN/m
surface tension liquid-gas ([1]; 298.15 K, x2 = 0.1248): 35.91 ± 1.1 mN/m
surface tension liquid-gas ([1]; 298.15 K, x2 = 0.2498): 32.37 ± 1.1 mN/m
surface tension liquid-gas ([1]; 298.15 K, x2 = 0.3821): 29.48 ± 1.1 mN/m
surface tension liquid-gas ([1]; 298.15 K, x2 = 0.4997): 27.81 ± 1.1 mN/m
surface tension liquid-gas ([1]; 298.15 K, x2 = 0.5959): 26.34 ± 1.1 mN/m
surface tension liquid-gas ([1]; 298.15 K, x2 = 0.661): 25.7 ± 1.1 mN/m
surface tension liquid-gas ([1]; 298.15 K, x2 = 0.7081): 25.17 ± 1.1 mN/m
surface tension liquid-gas ([1]; 298.15 K, x2 = 0.7437): 24.74 ± 1.1 mN/m
surface tension liquid-gas ([1]; 298.15 K, x2 = 0.8523): 23.5 ± 1.1 mN/m
surface tension liquid-gas ([1]; 298.15 K, x2 = 0.9519): 22.58 ± 1 mN/m
surface tension liquid-gas ([1]; 308.15 K, x2 = 0.0454): 37.85 ± 1.1 mN/m
surface tension liquid-gas ([1]; 308.15 K, x2 = 0.1248): 34.14 ± 1.1 mN/m
surface tension liquid-gas ([1]; 308.15 K, x2 = 0.2498): 31.06 ± 1.1 mN/m
surface tension liquid-gas ([1]; 308.15 K, x2 = 0.3821): 28.96 ± 1.1 mN/m
surface tension liquid-gas ([1]; 308.15 K, x2 = 0.4997): 27.06 ± 1.1 mN/m
surface tension liquid-gas ([1]; 308.15 K, x2 = 0.5959): 25.67 ± 1.1 mN/m
surface tension liquid-gas ([1]; 308.15 K, x2 = 0.661): 24.6 ± 1.1 mN/m
surface tension liquid-gas ([1]; 308.15 K, x2 = 0.7081): 24.41 ± 1.1 mN/m
surface tension liquid-gas ([1]; 308.15 K, x2 = 0.7437): 23.97 ± 1.1 mN/m
surface tension liquid-gas ([1]; 308.15 K, x2 = 0.8523): 22.89 ± 1 mN/m
surface tension liquid-gas ([1]; 308.15 K, x2 = 0.9519): 22.13 ± 1 mN/m
surface tension liquid-gas ([1]; 318.15 K, x2 = 0.0454): 36.89 ± 1.1 mN/m
surface tension liquid-gas ([1]; 318.15 K, x2 = 0.1248): 33.79 ± 1.1 mN/m
surface tension liquid-gas ([1]; 318.15 K, x2 = 0.2498): 30.95 ± 1.1 mN/m
surface tension liquid-gas ([1]; 318.15 K, x2 = 0.3821): 28.33 ± 1.1 mN/m
surface tension liquid-gas ([1]; 318.15 K, x2 = 0.4997): 26.41 ± 1.1 mN/m
surface tension liquid-gas ([1]; 318.15 K, x2 = 0.5959): 25.02 ± 1.1 mN/m
surface tension liquid-gas ([1]; 318.15 K, x2 = 0.661): 24.15 ± 1.1 mN/m
surface tension liquid-gas ([1]; 318.15 K, x2 = 0.7081): 23.65 ± 1.1 mN/m
surface tension liquid-gas ([1]; 318.15 K, x2 = 0.7437): 23.15 ± 1 mN/m
surface tension liquid-gas ([1]; 318.15 K, x2 = 0.8523): 22.34 ± 1 mN/m
surface tension liquid-gas ([1]; 318.15 K, x2 = 0.9519): 21.5 ± 1 mN/m
surface tension liquid-gas ([1]; 328.15 K, x2 = 0.0454): 36.64 ± 1.1 mN/m
surface tension liquid-gas ([1]; 328.15 K, x2 = 0.1248): 33.37 ± 1.1 mN/m
surface tension liquid-gas ([1]; 328.15 K, x2 = 0.2498): 30.07 ± 1.1 mN/m
surface tension liquid-gas ([1]; 328.15 K, x2 = 0.3821): 27.01 ± 1.1 mN/m
surface tension liquid-gas ([1]; 328.15 K, x2 = 0.4997): 25.5 ± 1.1 mN/m
surface tension liquid-gas ([1]; 328.15 K, x2 = 0.5959): 24.15 ± 1.1 mN/m
surface tension liquid-gas ([1]; 328.15 K, x2 = 0.661): 23.35 ± 1.1 mN/m
surface tension liquid-gas ([1]; 328.15 K, x2 = 0.7081): 22.77 ± 1 mN/m
surface tension liquid-gas ([1]; 328.15 K, x2 = 0.7437): 22.45 ± 1 mN/m
surface tension liquid-gas ([1]; 328.15 K, x2 = 0.8523): 21.64 ± 1 mN/m
surface tension liquid-gas ([1]; 328.15 K, x2 = 0.9519): 20.28 ± 1 mN/m

CCCCCCO [hexan-1-ol]
surface tension liquid-gas ([2]; 288.15 K): 25.38 ± 1.1 mN/m
surface tension liquid-gas ([2]; 298.15 K): 24.51 ± 1.1 mN/m
surface tension liquid-gas ([2]; 308.15 K): 23.86 ± 1.1 mN/m
surface tension liquid-gas ([2]; 318.15 K): 23.02 ± 1.1 mN/m
surface tension liquid-gas ([2]; 328.15 K): 22.33 ± 1 mN/m

CCCCCCO [hexan-1-ol] + C[S+](C)[O-]
surface tension liquid-gas ([1]; 288.15 K, x1 = 0.0276): 38.76 ± 1.1 mN/m
surface tension liquid-gas ([1]; 288.15 K, x1 = 0.0786): 34.22 ± 1.1 mN/m
surface tension liquid-gas ([1]; 288.15 K, x1 = 0.1661): 31.83 ± 1.1 mN/m
surface tension liquid-gas ([1]; 288.15 K, x1 = 0.2701): 29.83 ± 1.1 mN/m
surface tension liquid-gas ([1]; 288.15 K, x1 = 0.3741): 28.72 ± 1.1 mN/m
surface tension liquid-gas ([1]; 288.15 K, x1 = 0.4687): 27.91 ± 1.1 mN/m
surface tension liquid-gas ([1]; 288.15 K, x1 = 0.5385): 27.47 ± 1.1 mN/m
surface tension liquid-gas ([1]; 288.15 K, x1 = 0.5921): 26.99 ± 1.1 mN/m
surface tension liquid-gas ([1]; 288.15 K, x1 = 0.6345): 26.53 ± 1.1 mN/m
surface tension liquid-gas ([1]; 288.15 K, x1 = 0.7511): 26 ± 1.1 mN/m
surface tension liquid-gas ([1]; 288.15 K, x1 = 0.9512): 25.48 ± 1.1 mN/m
surface tension liquid-gas ([1]; 298.15 K, x1 = 0.0276): 37.64 ± 1.1 mN/m
surface tension liquid-gas ([1]; 298.15 K, x1 = 0.0786): 33.57 ± 1.1 mN/m
surface tension liquid-gas ([1]; 298.15 K, x1 = 0.1661): 30.74 ± 1.1 mN/m
surface tension liquid-gas ([1]; 298.15 K, x1 = 0.2701): 29.35 ± 1.1 mN/m
surface tension liquid-gas ([1]; 298.15 K, x1 = 0.3741): 27.95 ± 1.1 mN/m
surface tension liquid-gas ([1]; 298.15 K, x1 = 0.4687): 27.29 ± 1.1 mN/m
surface tension liquid-gas ([1]; 298.15 K, x1 = 0.5385): 26.83 ± 1.1 mN/m
surface tension liquid-gas ([1]; 298.15 K, x1 = 0.5921): 26.24 ± 1.1 mN/m
surface tension liquid-gas ([1]; 298.15 K, x1 = 0.6345): 26.06 ± 1.1 mN/m
surface tension liquid-gas ([1]; 298.15 K, x1 = 0.7511): 25.85 ± 1.1 mN/m
surface tension liquid-gas ([1]; 298.15 K, x1 = 0.9512): 25.1 ± 1.1 mN/m
surface tension liquid-gas ([1]; 308.15 K, x1 = 0.0276): 37.53 ± 1.1 mN/m
surface tension liquid-gas ([1]; 308.15 K, x1 = 0.0786): 34.04 ± 1.1 mN/m
surface tension liquid-gas ([1]; 308.15 K, x1 = 0.1661): 30.98 ± 1.1 mN/m
surface tension liquid-gas ([1]; 308.15 K, x1 = 0.2701): 28.94 ± 1.1 mN/m
surface tension liquid-gas ([1]; 308.15 K, x1 = 0.3741): 27.68 ± 1.1 mN/m
surface tension liquid-gas ([1]; 308.15 K, x1 = 0.4687): 26.7 ± 1.1 mN/m
surface tension liquid-gas ([1]; 308.15 K, x1 = 0.5385): 26.27 ± 1.1 mN/m
surface tension liquid-gas ([1]; 308.15 K, x1 = 0.5921): 25.85 ± 1.1 mN/m
surface tension liquid-gas ([1]; 308.15 K, x1 = 0.6345): 25.62 ± 1.1 mN/m
surface tension liquid-gas ([1]; 308.15 K, x1 = 0.7511): 25.2 ± 1.1 mN/m
surface tension liquid-gas ([1]; 308.15 K, x1 = 0.9512): 24.75 ± 1.1 mN/m
surface tension liquid-gas ([1]; 318.15 K, x1 = 0.0276): 36.73 ± 1.1 mN/m
surface tension liquid-gas ([1]; 318.15 K, x1 = 0.0786): 33.39 ± 1.1 mN/m
surface tension liquid-gas ([1]; 318.15 K, x1 = 0.1661): 30.06 ± 1.1 mN/m
surface tension liquid-gas ([1]; 318.15 K, x1 = 0.2701): 28.16 ± 1.1 mN/m
surface tension liquid-gas ([1]; 318.15 K, x1 = 0.3741): 26.94 ± 1.1 mN/m
surface tension liquid-gas ([1]; 318.15 K, x1 = 0.4687): 26.16 ± 1.1 mN/m
surface tension liquid-gas ([1]; 318.15 K, x1 = 0.5385): 25.57 ± 1.1 mN/m
surface tension liquid-gas ([1]; 318.15 K, x1 = 0.5921): 25.07 ± 1.1 mN/m
surface tension liquid-gas ([1]; 318.15 K, x1 = 0.6345): 24.72 ± 1.1 mN/m
surface tension liquid-gas ([1]; 318.15 K, x1 = 0.7511): 24.44 ± 1.1 mN/m
surface tension liquid-gas ([1]; 318.15 K, x1 = 0.9512): 24.14 ± 1.1 mN/m
surface tension liquid-gas ([1]; 328.15 K, x1 = 0.0276): 35.16 ± 1.1 mN/m
surface tension liquid-gas ([1]; 328.15 K, x1 = 0.0786): 32.7 ± 1.1 mN/m
surface tension liquid-gas ([1]; 328.15 K, x1 = 0.1661): 28.96 ± 1.1 mN/m
surface tension liquid-gas ([1]; 328.15 K, x1 = 0.2701): 27.55 ± 1.1 mN/m
surface tension liquid-gas ([1]; 328.15 K, x1 = 0.3741): 26.24 ± 1.1 mN/m
surface tension liquid-gas ([1]; 328.15 K, x1 = 0.4687): 25.36 ± 1.1 mN/m
surface tension liquid-gas ([1]; 328.15 K, x1 = 0.5385): 25.04 ± 1.1 mN/m
surface tension liquid-gas ([1]; 328.15 K, x1 = 0.5921): 24.29 ± 1.1 mN/m
surface tension liquid-gas ([1]; 328.15 K, x1 = 0.6345): 24.02 ± 1.1 mN/m
surface tension liquid-gas ([1]; 328.15 K, x1 = 0.7511): 23.84 ± 1.1 mN/m
surface tension liquid-gas ([1]; 328.15 K, x1 = 0.9512): 23.12 ± 1.1 mN/m

CCCO [propan-1-ol]
surface tension liquid-gas ([2]; 288.15 K): 23.24 ± 1 mN/m
surface tension liquid-gas ([2]; 298.15 K): 22.5 ± 1 mN/m
surface tension liquid-gas ([2]; 308.15 K): 21.39 ± 1 mN/m
surface tension liquid-gas ([2]; 318.15 K): 20.88 ± 1 mN/m
surface tension liquid-gas ([2]; 328.15 K): 20.18 ± 1 mN/m
